Data from ChEMBL document CHEMBL3860064, “Synthesis of (benzimidazol-2-yl)aniline derivatives as glycogen phosphorylase inhibitors” (Bioorg Med Chem, 2016).

Key:
[1] = Solubility of the compound in water; assay type: physicochemical; conditions: buffer
[2] = molecular target: T1, Glycogen phosphorylase, muscle form (Oryctolagus cuniculus) (UniProt P00489); assay: Inhibition of rabbit skeletal muscle glycogen phosphorylase b assessed as inorganic phosphate release using glucose-1-phosphate as substrate at pH 6.8 at 1000 uM
T1 sequence (whole entry): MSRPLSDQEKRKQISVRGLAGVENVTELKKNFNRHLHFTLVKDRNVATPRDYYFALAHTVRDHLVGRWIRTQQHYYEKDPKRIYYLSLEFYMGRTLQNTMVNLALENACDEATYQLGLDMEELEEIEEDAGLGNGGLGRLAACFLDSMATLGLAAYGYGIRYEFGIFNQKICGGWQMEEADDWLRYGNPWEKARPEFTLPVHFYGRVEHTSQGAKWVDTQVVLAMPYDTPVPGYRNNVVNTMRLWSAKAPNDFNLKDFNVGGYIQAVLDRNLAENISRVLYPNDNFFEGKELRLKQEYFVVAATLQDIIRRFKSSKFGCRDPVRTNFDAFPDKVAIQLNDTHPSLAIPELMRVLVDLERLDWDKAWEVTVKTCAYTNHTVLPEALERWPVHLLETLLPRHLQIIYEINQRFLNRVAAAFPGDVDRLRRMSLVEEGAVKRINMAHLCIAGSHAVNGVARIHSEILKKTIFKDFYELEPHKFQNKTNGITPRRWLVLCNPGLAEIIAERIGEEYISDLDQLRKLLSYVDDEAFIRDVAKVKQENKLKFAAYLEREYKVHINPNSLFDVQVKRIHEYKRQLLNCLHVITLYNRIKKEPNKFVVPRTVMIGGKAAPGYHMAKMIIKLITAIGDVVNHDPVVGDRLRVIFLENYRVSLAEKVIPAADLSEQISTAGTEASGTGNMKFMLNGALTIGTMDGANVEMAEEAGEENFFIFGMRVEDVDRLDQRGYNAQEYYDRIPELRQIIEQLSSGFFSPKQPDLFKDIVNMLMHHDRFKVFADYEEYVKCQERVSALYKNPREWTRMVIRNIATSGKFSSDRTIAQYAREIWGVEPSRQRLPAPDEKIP

[3] = molecular target: T2, Glycogen phosphorylase, muscle form (Oryctolagus cuniculus, UniProt P00489); assay: Inhibition of rabbit muscle glycogen phosphorylase b using […] preincubated for 60 mins followed by substrate addition in presence of glycogen
T2 sequence (P00489 whole entry): T1 sequence (whole entry)

[4] = molecular target: T3, Glycogen phosphorylase, liver form (Homo sapiens, UniProt P06737); assay: Inhibition of human recombinant liver glycogen phosphorylase A expressed in baculovirus infected Sf9 insect cells assessed as release of phosphate from glucose-1- phosphate in presence of 7.5 mM glucose by malachite green based assay
T3 sequence (P06737 whole entry): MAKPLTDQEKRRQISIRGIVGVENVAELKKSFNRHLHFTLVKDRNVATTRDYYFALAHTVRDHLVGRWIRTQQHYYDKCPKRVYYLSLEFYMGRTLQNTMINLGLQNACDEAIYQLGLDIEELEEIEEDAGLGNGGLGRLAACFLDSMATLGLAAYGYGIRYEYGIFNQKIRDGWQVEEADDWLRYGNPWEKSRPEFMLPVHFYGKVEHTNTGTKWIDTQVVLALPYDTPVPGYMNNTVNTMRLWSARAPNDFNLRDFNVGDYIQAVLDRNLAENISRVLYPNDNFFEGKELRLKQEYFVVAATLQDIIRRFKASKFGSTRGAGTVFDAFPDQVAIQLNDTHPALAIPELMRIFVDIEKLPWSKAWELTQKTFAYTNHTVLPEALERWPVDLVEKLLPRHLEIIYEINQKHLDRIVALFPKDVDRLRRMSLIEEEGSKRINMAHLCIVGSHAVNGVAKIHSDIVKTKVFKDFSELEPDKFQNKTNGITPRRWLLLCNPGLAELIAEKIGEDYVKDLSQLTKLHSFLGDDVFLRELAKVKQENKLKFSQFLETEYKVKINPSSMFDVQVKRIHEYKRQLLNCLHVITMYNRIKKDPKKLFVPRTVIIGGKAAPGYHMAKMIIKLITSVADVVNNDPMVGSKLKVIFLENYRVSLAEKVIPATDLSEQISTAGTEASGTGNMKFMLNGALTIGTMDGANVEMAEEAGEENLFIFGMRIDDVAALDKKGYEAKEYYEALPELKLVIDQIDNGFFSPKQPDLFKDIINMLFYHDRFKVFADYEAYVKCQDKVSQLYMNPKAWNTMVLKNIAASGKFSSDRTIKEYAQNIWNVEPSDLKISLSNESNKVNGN

[5] = molecular target: T1, Glycogen phosphorylase, muscle form (Oryctolagus cuniculus); assay: Inhibition of rabbit skeletal muscle glycogen phosphorylase b assessed as inorganic phosphate release using glucose-1-phosphate as substrate at pH 6.8 at 200 uM
[6] = molecular target: T1, Glycogen phosphorylase, muscle form (Oryctolagus cuniculus); assay: Inhibition of rabbit skeletal muscle glycogen phosphorylase b assessed as inorganic phosphate release using glucose-1-phosphate as substrate at pH 6.8 at 250 uM
[7] = Aqueous solubility of the compound in 20% DMSO; assay type: physicochemical; conditions: buffer
[8] = molecular target: T1, Glycogen phosphorylase, muscle form (Oryctolagus cuniculus); assay: Inhibition of rabbit skeletal muscle glycogen phosphorylase b assessed as inorganic phosphate release using glucose-1-phosphate as substrate at pH 6.8 at 300 uM
[9] = molecular target: T2, Glycogen phosphorylase, muscle form; assay: Inhibition of rabbit skeletal muscle glycogen phosphorylase b assessed as reduction in inorganic phosphate release using glucose-1-phosphate as substrate at pH 6.8
[10] = molecular target: T1, Glycogen phosphorylase, muscle form (Oryctolagus cuniculus); assay: Inhibition of rabbit skeletal muscle glycogen phosphorylase b assessed as inorganic phosphate release using glucose-1-phosphate as substrate at pH 6.8 at 500 uM

O=C(O)/C=C/C(=O)Nc1ccc(-c2nc3ccccc3[nH]2)cc1
solubility [1]: Insoluble
inhibition [2]: 45%

Cc1nn(-c2ccccc2)c(C)c1/N=N/c1ccc(-c2nc3ccccc3[nH]2)cc1
solubility [1]: Insoluble

O=C(N[C@@H](Cc1ccc(F)cc1)C(=O)C(=O)N1CCC(O)CC1)c1cc2cc(Cl)ccc2[nH]1
IC50 [3]: 0.178 µM
IC50 [4]: 0.2 µM

Nc1ccc(-c2nc3ccccc3[nH]2)cc1
solubility [1]: Insoluble

c1ccc2[nH]c(-c3ccc(NC4=NCCNC4)cc3)nc2c1
solubility [1]: Insoluble

Oc1nc(=S)[nH]c(O)c1/N=N/c1ccc(-c2nc3ccccc3[nH]2)cc1
solubility [1]: Insoluble
inhibition [5]: 16.1%

O=C(O)c1cc(Nc2ccc(-c3nc4ccccc4[nH]3)cc2)n(-c2ccc([N+](=O)[O-])cc2)n1
solubility [1]: Insoluble
inhibition [6]: 8.1%

O=C(CCl)Nc1ccc(-c2nc3ccccc3[nH]2)cc1
solubility [1]: Insoluble
solubility [7]: Soluble

CCOC(=O)C(=NNc1ccc(-c2nc3ccccc3[nH]2)cc1)C(=O)OCC
solubility [1]: Insoluble
solubility [7]: Soluble

O=C(O)c1cc(Nc2ccc(-c3nc4ccccc4[nH]3)cc2)n(-c2ccccc2)n1
solubility [1]: Insoluble
inhibition [8]: 25%

N=C1N=C(Nc2ccc(-c3nc4ccccc4[nH]3)cc2)CN1
solubility [1]: Insoluble

O=[N+]([O-])c1ccccc1S(=O)(=O)Nc1ccc(-c2nc3ccccc3[nH]2)cc1
IC50 [9]: 358 µM
solubility [1]: Insoluble
solubility [7]: Soluble

O=C1N=C(Nc2ccc(-c3nc4ccccc4[nH]3)cc2)CNN1
IC50 [9]: 437 µM
solubility [1]: Insoluble

CN(C)C(=O)[C@H](O)[C@H](Cc1ccccc1)NC(=O)c1cc2cc(Cl)ccc2[nH]1
IC50 [4]: 0.082 µM

O=C(NC(=O)c1cc(F)c(F)cc1Cl)Nc1ccsc1-c1n[nH]c(=O)o1
IC50 [4]: 30 µM

CC(=O)C/C(C)=N/c1ccc(-c2nc3ccccc3[nH]2)cc1
solubility [1]: Insoluble
solubility [7]: Soluble
inhibition [5]: 7%

S=C1N=C(Nc2ccc(-c3nc4ccccc4[nH]3)cc2)CN1
solubility [1]: Insoluble

O=C(O)c1cc(Nc2ccc(-c3nc4ccccc4[nH]3)cc2)[nH]n1
solubility [1]: Insoluble
solubility [7]: Insoluble

O=C1N=C(Nc2ccc(-c3nc4ccccc4[nH]3)cc2)CN1
solubility [1]: Insoluble

O=S(=O)(Nc1ccc(-c2nc3ccccc3[nH]2)cc1)c1ccccc1
IC50 [9]: 324 µM
solubility [1]: Insoluble
solubility [7]: Soluble

Cc1n[nH]c(C)c1/N=N/c1ccc(-c2nc3ccccc3[nH]2)cc1
solubility [1]: Insoluble

CC(=O)C(/N=N/c1ccc(-c2nc3ccccc3[nH]2)cc1)=C(/C)O
solubility [1]: Insoluble
solubility [7]: Soluble

S=C1N=C(Nc2ccc(-c3nc4ccccc4[nH]3)cc2)CNN1
solubility [1]: Insoluble
solubility [7]: Soluble

Cc1nn(-c2ccc([N+](=O)[O-])cc2)c(C)c1/N=N/c1ccc(-c2nc3ccccc3[nH]2)cc1
IC50 [9]: 532 µM
solubility [1]: Insoluble

Cc1ccc(S(=O)(=O)Nc2ccc(-c3nc4ccccc4[nH]3)cc2)cc1
solubility [1]: Insoluble
inhibition [10]: 20.7%
solubility [7]: Soluble

O=c1[nH][nH]c(O)c1/N=N/c1ccc(-c2nc3ccccc3[nH]2)cc1
solubility [1]: Insoluble
inhibition [10]: 29.4%
